± gives the standard deviation of the averaged measurements.
Columns and labels:
ABIRATERONE = compound: C[C@]12CC[C@H](O)CC1=CC[C@@H]1[C@@H]2CC[C@]2(C)C(c3cccnc3)=CC[C@@H]12 [ABIRATERONE]; test: surviving fraction relative to DMSO-only wells; higher = less growth inhibition; settings: exposure time: 5 days
Method in brief: (§1)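 In 384-well plates, 250–500 log-phase tumour cells per well were given 24 hours before five days of continuous exposure to inhibitors at 0.5, 1, 5, 10, 50, 100, 500 and 1000 nM. Surviving fraction is luminescence from CellTiter-Glo, normalised to the median of wells containing DMSO alone. Reading took place after 10 minutes at room temperature.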

DASATINIB = compound: Cc1nc(Nc2ncc(C(=O)Nc3c(C)cccc3Cl)s2)cc(N2CCN(CCO)CC2)n1 [DASATINIB]; test: as above; settings: exposure time: 5 days
Method in brief: as §1

Test System	surviving fraction (ABIRATERONE; 0.5 nM)	surviving fraction (ABIRATERONE; 1 nM)	surviving fraction (ABIRATERONE; 5 nM)	surviving fraction (ABIRATERONE; 10 nM)	surviving fraction (ABIRATERONE; 50 nM)	surviving fraction (ABIRATERONE; 100 nM)	surviving fraction (ABIRATERONE; 500 nM)	surviving fraction (ABIRATERONE; 1000 nM)	surviving fraction (DASATINIB; 0.5 nM)	surviving fraction (DASATINIB; 1 nM)	surviving fraction (DASATINIB; 5 nM)	surviving fraction (DASATINIB; 10 nM)	surviving fraction (DASATINIB; 50 nM)	surviving fraction (DASATINIB; 100 nM)	surviving fraction (DASATINIB; 500 nM)	surviving fraction (DASATINIB; 1000 nM)
MCF7 BREAST	0.961 ± 0.071	0.917 ± 0.059	0.902 ± 0.098	0.945 ± 0.027	1.01 ± 0.024	0.874 ± 0.039	1.05 ± 0.066	0.921 ± 0.017	0.803 ± 0.048	0.798 ± 0.043	0.816 ± 0.035	0.795 ± 0.019	0.787 ± 0.051	0.741 ± 0.048	0.741 ± 0.028	0.739 ± 0.037
SUM44 BREAST	0.949 ± 0.017	0.962 ± 0.057	1.02 ± 0.037	0.991 ± 0.045	1.06 ± 0.034	1.12 ± 0.07	1.1 ± 0.047	1.03 ± 0.031	0.88 ± 0.035	0.824 ± 0.085	0.941 ± 0.062	0.865 ± 0.13	1.14 ± 0.23	1.12 ± 0.15	1.09 ± 0.13	0.99 ± 0.055
SIHA CERVIX	1.16 ± 0.013	1.15 ± 0.016	1.18 ± 0.11	1.12 ± 0.086	1.18 ± 0.064	1.22 ± 0.046	1.27 ± 0.06	1.16 ± 0.056	0.876 ± 0.016	0.806 ± 0.013	0.74 ± 0.026	0.742 ± 0.019	0.772 ± 0.046	0.648 ± 0.052	0.561 ± 0.0062	0.543 ± 0.027
VCAP PROSTATE	1.13 ± 0.024	1.07 ± 0.083	1.19 ± 0.049	1.12 ± 0.073	1.22 ± 0.1	1.18 ± 0.18	1.02 ± 0.1	0.967 ± 0.11	0.856 ± 0.048	0.89 ± 0.014	0.923 ± 0.026	0.943 ± 0.091	1.01 ± 0.12	1.02 ± 0.11	1.02 ± 0.061	0.932 ± 0.062
HUO3N1 BONE	1.03 ± 0.019	1.0307 ± 0.00058	1.07 ± 0.049	1.11 ± 0.025	1.07 ± 0.035	1.11 ± 0.029	1.02 ± 0.012	0.995 ± 0.046	0.8227 ± 0.0049	0.747 ± 0.029	0.568 ± 0.083	0.457 ± 0.032	0.331 ± 0.0068	0.2553 ± 0.0021	0.232 ± 0.013	0.215 ± 0.0027
YAMATO SYNOVIAL	1.37 ± 0.033	1.52 ± 0.058	1.48 ± 0.12	1.45 ± 0.14	1.39 ± 0.14	1.46 ± 0.078	1.38 ± 0.025	1.22 ± 0.14	0.822 ± 0.18	0.729 ± 0.097	0.836 ± 0.19	0.771 ± 0.2	0.848 ± 0.13	0.753 ± 0.11	0.63 ± 0.039	0.677 ± 0.074
ASKA SYNOVIAL	1.19 ± 0.076	1.19 ± 0.11	1.23 ± 0.076	1.11 ± 0.11	1.2 ± 0.059	1.28 ± 0.069	1.19 ± 0.099	1.04 ± 0.1	0.928 ± 0.024	0.904 ± 0.051	0.974 ± 0.061	0.936 ± 0.046	0.985 ± 0.085	0.94 ± 0.032	0.919 ± 0.019	0.905 ± 0.036
MDAMB436 BREAST	0.954 ± 0.13	0.934 ± 0.063	0.915 ± 0.083	0.93 ± 0.061	1.02 ± 0.049	0.895 ± 0.052	0.953 ± 0.035	0.894 ± 0.037	0.793 ± 0.052	0.861 ± 0.061	0.811 ± 0.091	0.826 ± 0.094	0.824 ± 0.082	0.775 ± 0.057	0.783 ± 0.061	0.757 ± 0.034
H23 LUNG	1.07 ± 0.058	1.05 ± 0.062	1.06 ± 0.056	1.07 ± 0.049	1.1 ± 0.063	1.16 ± 0.032	1.17 ± 0.031	1.16 ± 0.072	0.924 ± 0.025	0.902 ± 0.065	0.823 ± 0.064	0.783 ± 0.052	0.597 ± 0.051	0.511 ± 0.067	0.288 ± 0.0063	0.256 ± 0.013
COLO320DM LARGE INTESTINE	1.13 ± 0.084	1.09 ± 0.033	1.11 ± 0.07	1.17 ± 0.057	1.26 ± 0.19	1.1 ± 0.062	1.2 ± 0.38	1.02 ± 0.027	1.12 ± 0.096	1.01 ± 0.051	1.08 ± 0.074	1.1 ± 0.034	1.03 ± 0.028	1.02 ± 0.056	1.09 ± 0.045	1.09 ± 0.089
